# “Also recorded” adds a separate entry of the source.
# Columns and labels:
# TAZ = assay: Western blotting of TAZ in cardiomyocytes; format: cell-based, Human; details: hyperglycemia conditioned cardiomyocytes, diabetic drug plus Coenzyme Q10 (T+R)
# Method: (§1) Human cardiomyocytes were subject to conditions simulating an diabetic environment experienced by the disease-relevant cells in vivo. Specifically, the cells were exposed to hyperglycemic conditions and hyperlipidemia conditions. The hyperglycemic condition was induced by culturing cells in media containing 22 mM glucose. The hyperlipidemia condition was induced by culturing the cells in media containing 1 mM L-carnitine, 0.7 mM Oleic acid and 0.7 mM Linoleic acid.
# The cell model comprising the above-mentioned cells, wherein the cells were exposed to each condition described above, was additionally “interrogated” by exposing the cells to an “environmental perturbation” by treating with a diabetic drug (T) which is known to cause cardiotoxicity, a rescue molecule (R) or both the diabetic drug and the rescue molecule (T+R). Specifically, the cells were treated with diabetic drug; or treated with rescue molecule Coenzyme Q10 at 0, 50 µM, or 100 µM; or treated with both of the diabetic drug and the rescue molecule Coenzyme Q10.
# Protein expression levels of GPAT1 and TAZ for each condition and each treatment were tested with western blotting.
# HUVEC cells [1] = assay: HUVEC apoptosis (annexin V/propidium iodide positive cells, flow cytometry); format: cell-based, Human; details: for propidium iodide positive apoptotic cells: 24 hours
# Method: Methods: Human umbilical vein endothelial cell (HUVEC) fate decisions that modulate the angiogenic phenotype were examined in the presence of 100 or 1500 μM CoQ10 or excipient and compared to untreated control cells. Endothelial cell fate assays for apoptosis, proliferation, migration and 3-D tube formation within MATRIGEL® were performed.
# To assess the potential effects of CoQ10 on endothelial migration, HUVEC migration was examined 5 hours post-cell clearance, in an endothelial scratch assay. […] In order to determine if the CoQ10 anti-tumor activity is due to effects on endothelial sprouting angiogenesis, we examined endothelial tube formation in 3-D MATRIGEL® cultures over time. Addition of excipient in both the gel and overlying media impaired tube formation compared to control.
# CoQ10 has divergent effects on endothelial cell survival: Confluent and sub-confluent cultures of HUVEC cells were treated for 24 hours with 100 or 1500 μM CoQ10 and assayed for propidium iodide positive apoptotic cells. The results are shown in FIGS. 53A and 53B, respectively.
# HUVEC cells [2] = assay: Endothelial morphology of HUVEC cultures; format: cell-based, Human; details: 24 hours
# Method: Effect of CoQ10 on endothelial morphology: Human umbilical vein endothelial cells (HUVEC cells) were treated for 24 hours with a range of concentrations of CoQ10. Drug was applied to confluent cells that closely resemble ‘normal’ cells and also to sub-confluent cells that more closely represent the angiogenic phenotype of proliferating cells. […] The response of sub-confluent endothelial cells to CoQ10 diverged from the confluent cell response (FIG. 52B).
# HUVEC cells [3] = assay: Nitric oxide (NO) generation in HUVEC under normoxia and hypoxia; format: cell-based, Human; details: subconfluent and confluent HUVEC, normoxic or hypoxic, 0, 100 or 1500 μM CoQ10
# Method: The response of HUVEC cells to normoxia and hypoxia in the presence of absence of CoQ10 was assessed. Specifically, HUVEC cells were grown in subconfluent and confluent cultures under normoxic or hypoxic conditions as described herein. The cells were also exposed to 0, 100, or 1500 μM CoQ10. Nitric oxide (NO) and reactive oxygen species (ROS) levels were determined using methods provided herein.
# LDHA = assay: Wet lab validation of LDHA expression in HepG2 cells; format: cell-based; details: HepG2, 50 uM or 100 uM CoQ10, 24 or 48 hours
# Method: The cell model comprising the above-mentioned cells, wherein the cells were exposed to each condition described above, was additionally interrogated by exposing the cells to an environmental perturbation by treating with Coenzyme Q10. Specifically, the cells were treated with Coenzyme Q10 at 0, 50 μM, or 100 μM.
# Cell samples as well as media samples for each cell line with each condition and each Coenzyme Q10 treatment were collected at various times following treatment, including after 24 hours and 48 hours of treatment.
# Protein accession number P00338 is LDHA. Wet lab validation of proteomics data were performed for LDHA expression in HepG2 cells (see FIG. 20).
# [4] = tested on: human mitochondrial energy metabolism genes; assay: Transcriptional profiling of mitochondrial energy metabolism genes in diabetic cardiomyocytes; format: cell-based; details: diabetic drug plus rescue molecule Coenzyme Q10 (T+R) vs untreated (UT)
# Method: as §1, with “acid. […]” for “acid.”
# Cell samples from each condition with each perturbation treatment were collected at various times following treatment, including after 6 hours of treatment. For certain conditions, media samples were also collected and analyzed.
# iProfiling of changes in total cellular protein expression by quantitative proteomics was performed for cell and media samples collected for each condition and with each “environmental perturbation”, i.e, diabetic drug treatment, Coenzyme Q10 treatment or both, using the techniques described above in the detailed description. […] Following data collection (Ct), the final fold change over control was determined using the δCt method as outlined in manufacturer's protocol. […] Functional assays such as Oxygen consumption rate OCR were measured by employing the Seahorse analyzer essentially as recommended by the manufacturer. […]
structure (smiles),measurement,setting,value
"COC1=C(OC)C(=O)C(C/C=C(\C)CC/C=C(\C)CC/C=C(\C)CC/C=C(\C)CC/C=C(\C)CC/C=C(\C)CC/C=C(\C)CC/C=C(\C)CC/C=C(\C)CCC=C(C)C)=C(C)C1=O [CoQ10, Coenzyme Q10]",protein expression level of TAZ,TAZ,normalized
same,HUVEC apoptosis (annexin V/propidium iodide positive cells),"HUVEC cells [1]; 1500 μM CoQ10, compared to excipient or control cells",increase
same,apoptosis / cell death of sub-confluent (angiogenic/proliferating) endothelial cells,HUVEC cells [1]; concentration not stated (summary),increases apoptosis; also recorded: selectively induces cell death
same,cell death of confluent (non-proliferating) endothelial cells,"HUVEC cells [1]; concentration not stated or low doses (summary), compared to controls",protective; also recorded: decreased compared to controls
same,propidium iodide positive apoptotic cells,"HUVEC cells [1]; confluent HUVEC, 100 or 1500 μM CoQ10",protective
same,propidium iodide positive apoptotic cells,"HUVEC cells [1]; sub-confluent HUVEC, 1500 μM CoQ10",increased apoptosis
same,endothelial morphology,"HUVEC cells [2]; confluent cultures, 5000 μM",subtle increase in rounded cells
same,endothelial morphology,"HUVEC cells [2]; confluent cultures, increasing concentrations of CoQ10","closer association, elongation and alignment of ECs"
same,endothelial morphology,"HUVEC cells [2]; sub-confluent cultures, 1000 μM CoQ10 and above",visibly unhealthy
same,visible cell death,"HUVEC cells [2]; sub-confluent cultures, increasing concentrations of CoQ10",Increased cell death
same,generation of nitric oxide (NO),HUVEC cells [3],differential dose dependent generation
same,LDHA expression levels,LDHA,decreased
same,transcriptional network and expression of human mitochondrial energy metabolism genes,[4]; listed as Coenzyme Q10,normalize gene expression and transcription
same,transcriptional network and expression of human mitochondrial energy metabolism genes,[4]; listed as rescue molecule,normalizes gene expression
